The record followed here is PubChem BioAssay (NCI).

Where “and” joins values, the source holds several entries; their conditions need not be identical. Equal entries are not always repeated.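 Interpolation was linear, between the two tested concentrations surrounding the appropriate level; five concentrations were tested over 48 hours in 96-well plates. Abbreviation: GI50, concentration required for 50% inhibition of growth. Definition used: TGI = concentration required for complete inhibition of growth.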

Among the test systems are NCI/ADR-RES ovarian; DMS 114 small cell lung; KM20L2 colon; LXFL 529 NSCLC; M19-MEL melanoma; SNB-78 CNS; MDA-N; HOP-18 NSCLC.
What all share (experiment): growth of human tumour cells (NCI), 48 h

Consider `CCOC(=O)C(=Cc1cccc(Cl)c1)C(=O)OCC`, for which, in the assay with NCI/ADR-RES ovarian, the GI50 was 3.3 µM and the TGI is 16.9 µM.

As for `C[C@H]1NC(=O)C2CCCCN2C(=O)CN(C)C(=O)CNC(=O)C2CCCCN2C(=O)[C@@H](NC(=O)c2nc3ccccc3cc2O)[C@@H](C)NC(=O)C2CCCCN2C(=O)CN(C)C(=O)CNC(=O)[C@@H]2CCCCN2C(=O)C1NC(=O)c1nc2ccccc2cc1O` (some centres not stated), the TGI with DMS 114 small cell lung turned out to be 0.703 µM; in the assay with KM20L2 colon, 10.4 µM; in the assay on LXFL 529 NSCLC, 0.646 µM; with M19-MEL melanoma, 0.56 µM; with SNB-78 CNS, 11.5 µM.

As to `O=C(c1ccc(Cl)cc1)c1cnc(Nc2ccccc2Cl)s1`, the TGI in the assay with DMS 114 small cell lung was 66.7 µM; in the assay on LXFL 529 NSCLC it was 32.8 µM; with M19-MEL melanoma, above 100 µM; in the assay on MDA-N, 50.1 µM.

On to `COc1ccc2[nH]cc(-c3nc(-c4c[nH]c5ncccc45)cs3)c2c1`, for which, in the assay with NCI/ADR-RES ovarian, the GI50 is 3.75 µM and the TGI was above 100 µM.

Take `c1ccc(SC2CCSc3ccccc3C2Sc2ccccc2)cc1` (configuration not stated): the TGI with KM20L2 colon, in the assay on LXFL 529 NSCLC and with SNB-78 CNS was above 100 µM throughout.

Take `Cc1csc(Nc2nc(-c3cccc(Br)c3)nc(C(Cl)(Cl)Cl)n2)n1`: in the assay on NCI/ADR-RES ovarian, the GI50 is 5.22 µM and the TGI is above 100 µM.

Turning to `Cc1[nH]c2ccccc2c1-c1cc(-c2cc(-c3c(C)[nH]c4ccccc34)on2)no1`, the TGI with MDA-N is 48.3 µM; in the assay with NCI/ADR-RES ovarian it was above 100 µM.

As for `C=CCc1cccc(/C=N/NC(=O)CN2CCN(Cc3ccccc3)CC2)c1O`, in the assay on NCI/ADR-RES ovarian, the GI50 is 0.92 µM and the TGI was found to be 11.9 µM.

Consider `CCN(CC)c1nc(-c2ccc(Cl)cc2Cl)nc2ccccc12`, for which, in the assay with NCI/ADR-RES ovarian, the GI50 is 23 µM and the TGI is above 71.1 µM.

Turning to `O=c1[nH]c(=O)n(C2CC(O)C(CO)O2)cc1CO` (configuration not stated), in the assay with NCI/ADR-RES ovarian, the GI50 is above 100 µM and the TGI was above 100 µM.

For `COc1cc(-c2nn(-c3cccc(NC(=O)Nc4ccc(Cl)c(Cl)c4)c3)cc2-c2ccncc2)ccc1Cl`, in the assay on NCI/ADR-RES ovarian, the GI50 was 0.99 µM and the TGI was determined as 4.67 µM.

For `CC(C)=CCc1cc(O)cc2c1OC(C=C(C)C)C1=C2C(=O)C2=C(NCCS2(=O)=O)C1=O` (configuration not stated), in the assay with NCI/ADR-RES ovarian, the GI50 is above 16.7 µM and the TGI was above 16.7 µM.

Turning to `CCCn1c(N)c(C(=O)N/N=C(/C)c2cc3cccc(OC)c3o2)sc1=S`, in the assay on NCI/ADR-RES ovarian, the GI50 is 18.6 µM and the TGI is above 100 µM.

Regarding `CC(=O)OC12c3ccccc3-c3ccccc3C1C1C(=O)N(C)C(=O)C12Cl` (configuration not stated), the TGI in the assay with MDA-N and with NCI/ADR-RES ovarian was above 10 µM in each case.

In the case of `CC[C@@]12N=C(N(C)C)C[C@]1(O)ON=C2C`, the TGI with DMS 114 small cell lung, in the assay on HOP-18 NSCLC, with KM20L2 colon, in the assay on LXFL 529 NSCLC and in the assay with M19-MEL melanoma was above 100 µM in each case.

As to `C=CCCCCCCCCCCC1(O)C=CC2=[N+](CCCCCN=C(N)N)CCCN21` (configuration not stated), in the assay with NCI/ADR-RES ovarian, the GI50 is 22.2 µM and the TGI was determined as 85.6 µM.

Consider `COc1ccccc1N1CCN(CCCn2c(=O)c3c(OC)nc(C)cc3c(=O)n2-c2ccccc2)CC1`, for which, in the assay on NCI/ADR-RES ovarian, the GI50 is above 100 µM and the TGI is above 100 µM.

For `CC1(C)OCCn2c1nc1c(N3CCOCC3)nc(-c3cnc(N)nc3)nc12`, in the assay on NCI/ADR-RES ovarian, the GI50 is 0.508 µM and the TGI is above 100 µM.

For `Nc1c(C(=O)Nc2cccc(Br)c2)sc2nc3c(cc12)C(=O)CCC3`, in the assay on NCI/ADR-RES ovarian, the GI50 is 0.475 µM and the TGI is above 100 µM.

Take `Oc1cc(O)c2c(c1)OC(c1ccc(O)c(O)c1)C(OC1(c3cc(O)c(O)c(O)c3)Oc3cc(O)cc(O)c3C(O)C1O)C2` (configuration not stated): the TGI in the assay on MDA-N worked out at 49.5 µM; in the assay with NCI/ADR-RES ovarian, 99.9 µM.

In the case of `CC(=O)c1cc2c(o1)C(=O)c1ccccc1C2=O`, in the assay with NCI/ADR-RES ovarian, the GI50 is 0.341 µM and 0.329 µM; the TGI is 1.81 µM and 1.47 µM.

For the compound `COc1ccc(/C(=N\NC(=O)C(N)=O)C(c2ccc(OC)cc2)C2(O)C(=O)Nc3c(Cl)cccc32)cc1` (configuration not stated), the TGI in the assay on DMS 114 small cell lung, in the assay on HOP-18 NSCLC, in the assay on KM20L2 colon, with LXFL 529 NSCLC, in the assay with M19-MEL melanoma and in the assay on SNB-78 CNS was above 100 µM in each case.

`CCOc1ccc2nc(S/C(=C/C=C(C#N)C#N)c3ccc(C)cc3)sc2c1`: in the assay on NCI/ADR-RES ovarian, the GI50 is 24 µM and the TGI worked out at 50.7 µM.

Consider `CC(CC(=O)O)C(C(=O)O)C(=O)O` (configuration not stated), for which the TGI in the assay with MDA-N and in the assay with NCI/ADR-RES ovarian was above 100 µM throughout.

`Cc1ccc(-c2nc3ccc([N+](=O)[O-])cc3[nH]2)cc1`: the TGI in the assay on MDA-N and in the assay with NCI/ADR-RES ovarian was above 100 µM in each case.

With `O=C(CSc1nnc(-c2ccc(N=Cc3ccc(Cl)cc3)cc2)o1)Nc1ccc(Cl)cc1`, the TGI in the assay on DMS 114 small cell lung, with HOP-18 NSCLC, with KM20L2 colon, in the assay with LXFL 529 NSCLC, with M19-MEL melanoma and with SNB-78 CNS was above 100 µM in each case.

Regarding `Cc1ccc(Cl)cc1Nc1nc(C(F)(F)F)ccc1C(=O)N1CCN(c2cccc(Cl)c2)CC1`, in the assay with NCI/ADR-RES ovarian, the GI50 is above 100 µM and the TGI was above 100 µM.

With `COc1ccc(NC(=O)/C(N=O)=C(/C)O)cc1`, the TGI in the assay on DMS 114 small cell lung, in the assay with HOP-18 NSCLC, with KM20L2 colon, in the assay on LXFL 529 NSCLC and in the assay on SNB-78 CNS was above 100 µM in each case.

For `Cn1cnc([N+](=O)[O-])c1S(=O)(=O)Oc1ccccc1`, in the assay with NCI/ADR-RES ovarian, the GI50 is 21.7 µM and the TGI is above 65.8 µM.

As for `O=C(NC(=O)c1cn(CCNCCO)c(=O)[nH]c1=O)OCc1ccccc1`, the TGI with DMS 114 small cell lung, with LXFL 529 NSCLC, in the assay on M19-MEL melanoma and in the assay with SNB-78 CNS was above 100 µM in each case.
